We go through two compounds from patent publication US20100151053A1, “SYSTEM AND METHOD FOR THE DELIVERY OF A SANITIZING FOAM” (GREEN SOURCE AUTOMATED, LLC, priority 2008, published 2010).

This series in a line: volumes of gas dissolved in teat dip solution under pressure. The format is physicochemical. The following applies: standard room temperature and 100 psi pressure; TeatKote 10/111 dip solution. The text has this:
When a vessel containing the dip solution is pressurized, the gas mixture pressure causes the gasses to dissolve into the dip and an amount of energy caused by the pressurization acts upon the system. The system is allowed to come to equilibrium and the temperature is controlled such that any temperature rise caused by this energy introduction is removed. Henry's law states: “the amount of any given gas that will dissolve in a liquid at a given temperature is a function of the partial pressure of the gas that is in contact with the liquid and the solubility coefficient of the gas in the particular liquid.” In other words, the amount of gas that can be dissolved into a liquid depends on the temperature, the pressure, and how well the particular liquid absorbs gases. With that being said, in order to make a consistent application of the preparation as a foam on the teats of a cow, a consistent pressure and temperature is beneficial. A recirculation loop from the pressurized tank to the nozzle and back to the tank can, for example, be employed to make sure the temperature and dissolved gas content remain consistent with that of the dip mixture in the tank in an embodiment of the invention.
In various embodiments of the invention, a pressure vessel is used to hold the dip solution and expose it to the propellant/diffused gas or gasses. […]

Take `O=C=O` [CO2, Carbon dioxide]: the “volumes dissolved, gas versus dip solution” value is “approximately 4.5 volumes”.

For `[N-]=[N+]=O` [Example N2O, nitrous oxide], the “volumes dissolved, gas versus dip solution” value is on record as “approximately four”.
